Numbers after ± are expanded uncertainties.
Conditions: for molar entropy: 101.33 kPa, Crystal 1, Vacuum adiabatic calorimetry

SMILES: [Al+3].[Al+3].[Co+2].[O-2].[O-2].[O-2].[O-2] [aluminium cobalt oxide]
- molar entropy (15 K): 2.91 ± 0.04 J/K/mol
- molar entropy (20 K): 4.1 ± 0.05 J/K/mol
- molar entropy (25 K): 5.02 ± 0.05 J/K/mol
- molar entropy (30 K): 5.79 ± 0.08 J/K/mol
- molar entropy (35 K): 6.5 ± 0.08 J/K/mol
- molar entropy (40 K): 7.21 ± 0.08 J/K/mol
- molar entropy (45 K): 7.95 ± 0.08 J/K/mol
- molar entropy (50 K): 8.75 ± 0.09 J/K/mol
- molar entropy (55 K): 9.61 ± 0.09 J/K/mol
- molar entropy (60 K): 10.56 ± 0.09 J/K/mol
- molar entropy (65 K): 11.58 ± 0.09 J/K/mol
- molar entropy (70 K): 12.68 ± 0.1 J/K/mol
- molar entropy (75 K): 13.85 ± 0.1 J/K/mol
- molar entropy (80 K): 15.1 ± 0.11 J/K/mol
- molar entropy (85 K): 16.42 ± 0.11 J/K/mol
- molar entropy (90 K): 17.81 ± 0.33 J/K/mol
- molar entropy (95 K): 19.26 ± 0.33 J/K/mol
- molar entropy (100 K): 20.77 ± 0.33 J/K/mol
- molar entropy (105 K): 22.33 ± 0.33 J/K/mol
- molar entropy (110 K): 23.96 ± 0.34 J/K/mol
- molar entropy (120 K): 27.36 ± 0.34 J/K/mol
- molar entropy (130 K): 30.94 ± 0.35 J/K/mol
- molar entropy (140 K): 34.68 ± 0.35 J/K/mol
- molar entropy (150 K): 38.55 ± 0.36 J/K/mol
- molar entropy (160 K): 42.52 ± 0.36 J/K/mol
- molar entropy (170 K): 46.6 ± 0.37 J/K/mol
- molar entropy (180 K): 50.73 ± 0.38 J/K/mol
- molar entropy (190 K): 54.92 ± 0.38 J/K/mol
- molar entropy (200 K): 59.14 ± 0.39 J/K/mol
- molar entropy (210 K): 63.39 ± 0.4 J/K/mol
- molar entropy (220 K): 67.65 ± 0.4 J/K/mol
- molar entropy (230 K): 71.9 ± 0.41 J/K/mol
- molar entropy (240 K): 76.15 ± 0.41 J/K/mol
- molar entropy (250 K): 80.37 ± 0.42 J/K/mol
- molar entropy (260 K): 84.57 ± 0.43 J/K/mol
- molar entropy (270 K): 88.74 ± 0.43 J/K/mol
- molar entropy (280 K): 92.88 ± 0.44 J/K/mol
- molar entropy (290 K): 97 ± 0.45 J/K/mol
- molar entropy (298.15 K): 100.31 ± 0.45 J/K/mol
- molar entropy (300 K): 101.06 ± 0.45 J/K/mol
- molar entropy (310 K): 105.07 ± 0.46 J/K/mol
- molar entropy (320 K): 109.05 ± 0.46 J/K/mol
- molar entropy (330 K): 112.99 ± 0.47 J/K/mol
- molar entropy (340 K): 116.88 ± 0.48 J/K/mol
- molar entropy (350 K): 120.72 ± 0.48 J/K/mol
- molar entropy (360 K): 124.52 ± 0.49 J/K/mol
- molar entropy (370 K): 128.28 ± 0.49 J/K/mol
- molar entropy (380 K): 131.99 ± 0.5 J/K/mol
- molar entropy (390 K): 135.65 ± 0.5 J/K/mol
- Triple point temperature (Crystal 2, Adiabatic calorimetry): 9 ± 0.2 K

Reference: the NIST ThermoML archive (doi:10.1016/j.jct.2009.01.014)
